From ChEMBL document CHEMBL1150852, “Coumarins isolated from Angelica gigas inhibit acetylcholinesterase: structure-activity relationships” (J Nat Prod, 2001)
pIC50: −log10 of the molar value.

molecular target: Acetylcholinesterase (Homo sapiens, UniProt P22303); experiment: Inhibition of AChE by spectrophotometry
Sequence (P22303 whole entry): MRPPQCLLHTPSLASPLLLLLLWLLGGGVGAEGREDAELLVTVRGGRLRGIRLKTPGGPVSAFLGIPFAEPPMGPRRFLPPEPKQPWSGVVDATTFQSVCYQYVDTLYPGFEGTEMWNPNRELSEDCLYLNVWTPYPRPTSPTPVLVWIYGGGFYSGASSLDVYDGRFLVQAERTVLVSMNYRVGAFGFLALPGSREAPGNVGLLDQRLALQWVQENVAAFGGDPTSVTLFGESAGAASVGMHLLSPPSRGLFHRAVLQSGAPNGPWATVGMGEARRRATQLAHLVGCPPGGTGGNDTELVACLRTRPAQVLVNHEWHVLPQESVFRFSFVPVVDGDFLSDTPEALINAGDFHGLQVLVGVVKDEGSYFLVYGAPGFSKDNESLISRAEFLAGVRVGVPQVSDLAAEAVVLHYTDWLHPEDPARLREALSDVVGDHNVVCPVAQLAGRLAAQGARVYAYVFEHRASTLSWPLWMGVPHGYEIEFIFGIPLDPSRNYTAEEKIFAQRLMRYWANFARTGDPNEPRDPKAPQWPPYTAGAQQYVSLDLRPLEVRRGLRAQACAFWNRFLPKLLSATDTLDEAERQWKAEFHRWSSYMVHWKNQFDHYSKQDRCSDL

Q: How did the pIC50 turn out when `CC(C)=CCc1cc2ccc(=O)oc2cc1O` [DEMETHYLSUBEROSIN] was run?
A: 2.62

Q: With `CC(C)(O)C(=O)Cc1cc2ccc(=O)oc2cc1O` [PEUCEDANONE] as the compound, how does the pIC50 read?
A: 3.74

Q: `C=C(C)[C@H](O)Cc1cc2ccc(=O)oc2cc1O` was tested. Which pIC50 did it give?
A: 3.89

Q: With `COc1c2occc2cc2ccc(=O)oc12` [METHOXSALEN] as the compound, how does the pIC50 read?
A: 4.27

Q: With `CC(C)(O[C@@H]1O[C@H](CO)[C@@H](O)[C@H](O)[C@H]1O)[C@H]1Cc2cc3ccc(=O)oc3cc2O1` [NODAKENIN] as the compound, how does the pIC50 read?
A: 4.17

Q: `CC(C)(O)[C@@H]1Cc2cc3ccc(=O)oc3cc2O1` [MARMESIN] was tested. Which pIC50 did it give?
A: 4.17

Q: `CC1(C)C=Cc2cc3ccc(=O)oc3cc2O1` [XANTHYLETIN] was tested. Which pIC50 did it give?
A: 3.82

Q: How did the pIC50 turn out when `CC(C)=CC(=O)O[C@H]1Cc2cc3ccc(=O)oc3cc2OC1(C)C` [DECURSIN] was run?
A: 3.41

Q: With `COc1cc(OCC=C(C)C)c2ccc(=O)oc2c1` as the compound, how does the pIC50 read?
A: 3.62

Q: `CC(C)=CCOc1c2ccoc2cc2oc(=O)ccc12` [ISOIMPERATORIN] was tested. Which pIC50 did it give?
A: 4.16
